Experimental data taken from patent US20230355759A1, “POPULATIONS OF NATURAL KILLER CELLS COMPRISING A CLEAVAGE RESISTANT CD16” (CELULARITY INC., priority 2019, published 2023).

What was measured:
CD34+ cells [1] = assay: NK cell expansion in three-stage NK culture with compound; format: cell-based, human; details: for support of NK (PNK-007) expansion: compound at 10 μM during the first 14 days, 35-day culture; for NK cell expansion compared to SR1: compound and SR1 at 10 μM, Day 35; for expansion, differentiation and cytotoxicity profiles compared to SR1: PNK-007 culture
Excerpt: (§1) UCB CD34+ cells were cultivated in presence of cytokines including thrombopoietin, SCF, Flt3 ligand, IL-7, IL-15 and IL-2 for 35 days to produce three-stage NK cells, as described in Example 1. Multi-color flow cytometry was used to determine the phenotypic characteristics of three-stage NK cells.
(§2) For biological testing, the compounds were provided to culture to evaluate their effects on NK cell expansion and differentiation. Specifically, donors of CD34^+ cells (StemCell Technology) were thawed and expanded in vitro following NK culture protocol. During the first 14 days of the culture, each CRL compounds was dissolved in DMSO and added to the culture at 10 μM concentration. SR1 (at 10 μM) served as a positive control compound, while DMSO alone without any compound served as a negative control. At the end of the culture on Day 35, cell expansion, natural killer (NK) cell differentiation and cytotoxicity of the cells against K562 tumor cell line were characterized. Due to the large number of the compounds, the testing was performed in two experiments, CRL1-11 and CRL 12-22. The same donors were used for each experiment. Positive and negative controls were also included in both experiments.

K562 tumor cells = assay: Cytotoxicity assay of compound cultured cells against K562; format: cell-based; details: K562, 10:1 effector to target ratio
Experimental: as §2
Cytotoxicity assay was run using compound cultured cells against K562 tumor cells at 10:1 effector to target ratio (FIG. 5) to evaluate cell functions.

CD34+ cells [2] = assay: NK cell differentiation of compound cultured cells (flow cytometry); format: cell-based, human; details: PNK-007 culture
Excerpt: as §1, §2

CD34 cells = assay: CD34 cell expansion at Day 14 of the culture; format: cell-based, human; details: compound at 10 μM
Experimental: as §2

Structure (SMILES) | support of NK (PNK-007) expansion (CD34+ cells [1]) | NK cell expansion compared to SR1 (CD34+ cells [1]) | killing activities compared to cells cultured with SR1 (K562 tumor cells) | CD56+/CD11a+ subpopulation compared to SR1 (CD34+ cells [2]) | expansion, differentiation and cytotoxicity profiles compared to SR1 (CD34+ cells [1]) | CD34 cell expansion (CD34 cells)
CCC(C)Nc1cc(-c2cncc(C#N)c2)nc(NCCc2c[nH]c3ccccc23)n1 (centres unmarked) [CRL7, 5-(2-((2-(1H-indol-3-yl)ethyl)amino)-6-(sec-butylamino)pyrimidin-4-yl)nicotinonitrile] | all the compounds except CRL7 and CRL13 supported PNK-007 expansion and differentiation |  |  |  |  | 
CCC(C)Nc1nc(NCCc2c[nH]c3ccccc23)c2ccccc2n1 (centres unmarked) [CRL13, N^4-(2-(1H-indol-3-yl)ethyl)-N^2-(sec-butyl)quinazoline-2,4-diamine] | all the compounds except CRL7 and CRL13 supported PNK-007 expansion and differentiation |  |  |  |  | 
CC(C)c1csc2c(NCCc3c[nH]c4ccccc34)nc(-c3cncc(C#N)c3)nc12 [CRL17, 5-(4-((2-(1H-indol-3-yl)ethyl)amino)-7-isopropylthieno[3,2-d]pyrimidin-2-yl)nicotinonitrile] |  | slightly less expansion compared to SR1 | increased killing activities of the cells | increased CD56+/CD11a+ subpopulation |  | 
CC(C)c1csc2c(NCCc3c[nH]c4ccccc34)nc(-c3cncc(F)c3)nc12 [CRL18, N-(2-(1H-indol-3-yl)ethyl)-2-(5-fluoropyridin-3-yl)-7-isopropylthieno[3,2-d]pyrimidin-4-amine] |  | slightly less expansion compared to SR1 | increased killing activities of the cells | increased CD56+/CD11a+ subpopulation |  | 
Fc1cncc(-c2nc(NCCc3c[nH]c4ccccc34)c3occc3n2)c1 [CRL19, N-(2-(1H-indol-3-yl)ethyl)-2-(5-fluoropyridin-3-yl)furo[3,2-d]pyrimidin-4-amine] | supported cell expansion the best |  |  |  | very similar expansion, differentiation and cytotoxicity profiles as SR1 | highest CD34 cell expansion
Cc1cncc(-c2nc(NCCc3c[nH]c4ccccc34)c3occc3n2)c1 [CRL20, N-(2-(1H-indol-3-yl)ethyl)-2-(5-methylpyridin-3-yl)furo[3,2-d]pyrimidin-4-amine] | supported cell expansion the best |  |  |  | very similar expansion, differentiation and cytotoxicity profiles as SR1 | highest CD34 cell expansion
Cc1cncc(-c2nc(NCCc3c[nH]c4ccccc34)c3scc(C(C)C)c3n2)c1 [CRL21, N-(2-(1H-indol-3-yl)ethyl)-7-isopropyl-2-(5-methylpyridin-3-yl)thieno[3,2-d]pyrimidin-4-amine] |  | slightly less expansion compared to SR1 | increased killing activities of the cells | increased CD56+/CD11a+ subpopulation |  | 
N#Cc1cncc(-c2nc(NCCc3c[nH]c4ccccc34)c3occc3n2)c1 [CRL22, 5-(4-((2-(1H-indol-3-yl)ethyl)amino)furo[3,2-d]pyrimidin-2-yl)nicotinonitrile] | supported cell expansion the best |  |  |  | very similar expansion, differentiation and cytotoxicity profiles as SR1 | highest CD34 cell expansion
